Among the test systems are PC-3 prostate; TK-10 renal; NCI-H522 lung; LOX IMVI melanoma; SF-268 CNS; SW-620 colon; OVCAR-4 ovarian; SK-MEL-28 melanoma; UACC-257 melanoma; MDA-MB-435.
Holding throughout (test): DTP human tumour cell line panel, 48 h

Structures are written as SMILES.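 Where inhibition never reached the appropriate level, the endpoint shown equals the highest concentration tested. Otherwise, values were interpolated linearly from a five-concentration, 48-hour dose response in 96-well plates. GI50: concentration for 50% inhibition of growth. The concentration for full growth arrest is given as TGI.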 Where a SMILES comes first, the peptide text is derived from it. Bridges are numbered along the chain shown (N, C = ends). [ ]: non-standard residue; d: D form. ξ: configuration not given here. ξThr(3R) = C[C@@H](O)C(N)C(=O)O; S5 = C=CCCC[C@](C)(N)C(=O)O

The GI50 is the concentration giving 50% growth inhibition. As usually defined, the TGI is the concentration at which net growth stops. Lower therefore signals greater sensitivity of the cells. `COc1cccc(C2=C(c3cn(C)c4cc(F)ccc34)C(=O)NC2=O)c1`: the GI50 with PC-3 prostate was 12.5 µM; in the assay on TK-10 renal it was > 16.9 µM; in the assay with NCI-H522 lung, > 15.9 µM; in the assay on LOX IMVI melanoma, 17.1 µM; with SF-268 CNS, > 22.2 µM; with SW-620 colon, 13.1 µM. Also, the GI50 with OVCAR-4 ovarian is > 8.37 µM; with SK-MEL-28 melanoma, > 25 µM; in the assay on UACC-257 melanoma, > 25 µM; with MDA-MB-435, 11.7 µM. Further, the TGI in the assay on PC-3 prostate, with TK-10 renal, with NCI-H522 lung, with LOX IMVI melanoma, in the assay on SF-268 CNS and with SW-620 colon was > 25 µM in each case. The TGI with OVCAR-4 ovarian, in the assay with SK-MEL-28 melanoma, in the assay on UACC-257 melanoma and with MDA-MB-435 was > 25 µM in each case.
For the molecule `COc1cccc(/C=C/c2ccnc3ccccc23)c1OC`, the TGI in the assay with PC-3 prostate, in the assay on TK-10 renal, with NCI-H522 lung, in the assay with LOX IMVI melanoma, in the assay with SF-268 CNS and with SW-620 colon was > 10 µM each time. Moreover, the TGI in the assay with OVCAR-4 ovarian, in the assay on SK-MEL-28 melanoma, with UACC-257 melanoma and with MDA-MB-435 was > 10 µM each time.
As to `NC(Cc1c[nH]c2ccc(F)cc12)C(=O)O` (stereo not drawn), the GI50 was 780 µM with PC-3 prostate; > 2500 µM with TK-10 renal; 1460 µM with NCI-H522 lung; 509 µM with LOX IMVI melanoma; 677 µM in the assay on SF-268 CNS; 1170 µM in the assay on SW-620 colon. In addition, the GI50 with OVCAR-4 ovarian is 953 µM; in the assay on SK-MEL-28 melanoma, 795 µM; in the assay on UACC-257 melanoma, 475 µM; with MDA-MB-435, 785 µM. Besides, the TGI in the assay on PC-3 prostate was > 2500 µM; in the assay on TK-10 renal, > 2500 µM; in the assay with NCI-H522 lung, > 2500 µM; with LOX IMVI melanoma it was 1860 µM; with SF-268 CNS, > 2500 µM; in the assay on SW-620 colon, > 2500 µM. Also, the TGI in the assay with OVCAR-4 ovarian is > 2500 µM; in the assay with SK-MEL-28 melanoma, > 2500 µM; in the assay with UACC-257 melanoma, 1220 µM; in the assay on MDA-MB-435, > 2500 µM.
For the molecule `Cc1ccc(-c2nc3cc(Cl)c(Cl)cc3nc2C#N)cc1`, the GI50 in the assay with PC-3 prostate was > 100 µM; in the assay with TK-10 renal, 49.2 µM; in the assay with NCI-H522 lung, > 100 µM; in the assay with LOX IMVI melanoma, > 100 µM; in the assay with SF-268 CNS it was > 100 µM; in the assay on SW-620 colon, > 100 µM. Besides, the GI50 with OVCAR-4 ovarian, with SK-MEL-28 melanoma, in the assay on UACC-257 melanoma and with MDA-MB-435 was > 100 µM throughout. The TGI in the assay with PC-3 prostate, in the assay with TK-10 renal, in the assay with NCI-H522 lung, with LOX IMVI melanoma, in the assay on SF-268 CNS and in the assay on SW-620 colon was > 100 µM each time. In addition, the TGI in the assay on OVCAR-4 ovarian, in the assay with SK-MEL-28 melanoma, in the assay with UACC-257 melanoma and with MDA-MB-435 was > 100 µM in each case.
Consider `CCN(CC)c1ccc(C2NC(=O)c3ccccc3N2)cc1` (stereo not drawn), for which the TGI with PC-3 prostate, in the assay on TK-10 renal, in the assay on NCI-H522 lung, in the assay with LOX IMVI melanoma, with SF-268 CNS and with SW-620 colon was > 100 µM in each case. Further, the concentration for total growth inhibition (TGI) with OVCAR-4 ovarian was > 100 µM; in the assay with SK-MEL-28 melanoma it was > 100 µM; with UACC-257 melanoma, > 100 µM; with MDA-MB-435, 3.44 µM.
Consider `CC(=O)N[C@H](C(=O)N[C@@H](CCCNC(=N)N)C(=O)N[C@@H](CCCCN)C(=O)N[C@@H](CCCNC(=N)N)C(=O)NC(C(=O)N[C@@H](CC(C)C)C(=O)N[C@@H](CCCNC(=N)N)C(=O)N[C@@]1(C)CCC/C=C\CCC[C@@](C)(C(=O)N[C@@H](CCCNC(=N)N)C(=O)N[C@@H](CCC(=O)O)C(=O)N[C@@H](CC(C)C)C(=O)N[C@H](C(=O)N[C@@H](CCC(=O)O)C(N)=O)C(C)C)NC(=O)[C@H](CCC(N)=O)NC(=O)[C@H](CC(C)C)NC(=O)[C@H](CC(C)C)NC1=O)[C@@H](C)O)C(C)C` (stereo partly drawn) (Ac-VRKR[ξThr(3R)]LR[S5]LLQ[S5]RELVE-NH2; staple (Z) 8-12), for which the GI50 was 7.76 µM with PC-3 prostate; 1.33 µM in the assay on TK-10 renal; 5.75 µM in the assay on NCI-H522 lung; 8.64 µM in the assay with LOX IMVI melanoma; 2.1 µM in the assay on SF-268 CNS; 8.29 µM in the assay on SW-620 colon. In addition, the GI50 was 9.5 µM in the assay with OVCAR-4 ovarian, 3.93 µM in the assay on SK-MEL-28 melanoma and 1.94 µM with MDA-MB-435. Further, the TGI in the assay with PC-3 prostate stood at 15.3 µM; in the assay on TK-10 renal it was 4.38 µM; in the assay on NCI-H522 lung it was 16.4 µM; in the assay on LOX IMVI melanoma it was 18.8 µM; with SF-268 CNS, 8.62 µM; with SW-620 colon it was 16.2 µM. The values for the TGI with OVCAR-4 ovarian, with SK-MEL-28 melanoma and in the assay with MDA-MB-435 were 20 µM, 11.3 µM and 7.56 µM, respectively.
For `COc1c(O)cc2c(c1O)C(=O)C1=C(CCCC1)C2=O`, the concentration for total growth inhibition (TGI) in the assay on PC-3 prostate is 84.5 µM; with TK-10 renal, 74.7 µM; with NCI-H522 lung, 31.8 µM; in the assay on LOX IMVI melanoma, 33.6 µM; with SF-268 CNS, > 100 µM; in the assay with SW-620 colon it was > 100 µM. For the same molecule, the concentration for total growth inhibition (TGI) is 95.6 µM in the assay on OVCAR-4 ovarian, 62 µM with SK-MEL-28 melanoma, 81.2 µM with UACC-257 melanoma and > 100 µM with MDA-MB-435.
Take `CCCCN=C(N)c1ccc(N2CCCN(c3ccc(C(N)=NCCCC)cc3)CC2)cc1`: the GI50 in the assay on PC-3 prostate was 11.5 µM; in the assay with TK-10 renal, 11.4 µM; in the assay on NCI-H522 lung, 11.8 µM; with LOX IMVI melanoma, 22.5 µM; in the assay on SF-268 CNS, 8.53 µM; with SW-620 colon, 13.6 µM. In addition, the GI50 is 83.1 µM with OVCAR-4 ovarian, 31.2 µM in the assay with SK-MEL-28 melanoma, 10 µM with UACC-257 melanoma and 14.8 µM with MDA-MB-435. Further, the concentration for total growth inhibition (TGI) with PC-3 prostate is > 100 µM; in the assay with TK-10 renal it was > 84.7 µM; in the assay with NCI-H522 lung it was > 100 µM; in the assay on LOX IMVI melanoma it was > 67.6 µM; in the assay on SF-268 CNS, > 100 µM; in the assay on SW-620 colon it was > 100 µM. The TGI is > 100 µM with OVCAR-4 ovarian, > 100 µM with SK-MEL-28 melanoma, 66.8 µM in the assay with UACC-257 melanoma and > 96.6 µM in the assay on MDA-MB-435.

The record behind these values is PubChem BioAssay (NCI).
